Laboratory results from ChEMBL document CHEMBL2086250, “Long-acting peptidomimetics based DPP-IV inhibitors” (Bioorg Med Chem Lett, 2012).
Activity calls are given as the source filed them. The rule behind the calls is not given here.

Experiments:
[1] = tested on: Mus musculus; assay: Antidiabetic activity against C57BL/6J mouse assessed as reduction serum glucose AUC levels at 20 mg/kg, po measured up to 30 mins by IPGTT method; format: functional, organism-based; parameters: dose 20 mg/kg
[2] = tested on: Mus musculus; assay: Antidiabetic activity against C57BL/6J mouse assessed as reduction serum glucose AUC levels at 20 mg/kg, po measured up to 60 mins by IPGTT method; format: functional, organism-based; parameters: dose 20 mg/kg
[3] = tested on: Mus musculus; assay: Antidiabetic activity against C57BL/6J mouse assessed as reduction serum glucose AUC levels at 20 mg/kg, po measured up to 120 mins by IPGTT method; format: functional, organism-based; parameters: dose 20 mg/kg
[4] = tested on: Mus musculus; assay: Antidiabetic activity against C57BL/6J mouse assessed as reduction serum glucose AUC levels at 20 mg/kg, po measured up to 240 mins by IPGTT method; format: functional, organism-based; parameters: dose 20 mg/kg
[5] = Tmax in C57BL/6J mouse at 20 mg/kg, po administered as single dose; format: ADME, organism-based; parameters: dose 20 mg/kg, route oral; conditions: in vivo
[6] = Cmax in C57BL/6J mouse at 20 mg/kg, po administered as single dose; format: ADME, organism-based; parameters: dose 20 mg/kg, route oral; conditions: in vivo
[7] = Half life in C57BL/6J mouse at 20 mg/kg, po administered as single dose; format: ADME, organism-based; parameters: dose 20 mg/kg, route oral; conditions: in vivo
[8] = AUC (0 to alpha) in C57BL/6J mouse at 20 mg/kg, po administered as single dose; format: ADME, organism-based; parameters: dose 20 mg/kg, route oral; conditions: plasma
[9] = Oral bioavailability in C57BL/6J mouse at 20 mg/kg administered as single dose; format: ADME, organism-based; conditions: in vivo
[10] = Elimination rate constant in C57BL/6J mouse at 20 mg/kg administered as single dose; format: ADME, organism-based; parameters: dose 20 mg/kg; conditions: in vivo

| Tmax [5] [min] | Cmax [6] [ng/mL] | half-life [7] [min] | AUC [8] [ng·h/mL] | bioavailability [9] [%] | k el [10] [s⁻¹] | SMILES | Activity [1] | Activity [2] | Activity [3] | Activity [4] |
| --- | --- | --- | --- | --- | --- | --- | --- | --- | --- | --- |
| 17.4 | 7100 | 479 | 14300 | 72.5 | 3.06e-05 | N#Cc1ccc(C(=O)NCCCC(=O)N2CCC[C@H]2C#N)cc1 | Active | Active | Active | Active |
| 19.2 | 6200 | 52.8 | 6490 | 65 |  | N#Cc1ccc(NCCNCC(=O)N2CCC[C@H]2C#N)nc1 | Active | Active | inactive | inactive |
| 16.8 | 5900 | 59.4 | 6890 | 63.1 | 0.000228 | N#C[C@@H]1CCCN1C(=O)CCCNC(=O)c1ccc(C(F)(F)F)cc1 | Active | Active | inactive | inactive |
